Data set [1] in a line: Mouse study on analog 115: pharmacokinetic profile and clinical observations. Particulars: for concentration at 7 h: female, CD-1, mouse, plasma. The method, then: Two tests were conducted, on for a single oral dose of 10 mg/kg and for an intravenous 2 mg/kg dose in female CD-1 mice (n=3 for each group).
Mouse study with Analog 115: All mouse work was performed by Paraza Pharma, Inc. All pertinent information and methods are listed in FIG. 17.

The test system of data set [2] is NRF2 protein. The data set can be described thus: Western blot analysis of NRF2 protein abundance and downstream targets in cell lines. It is filed as cell-based. To be noted: western blot; 24-48 hours; PYR 10 μM, analogs 1 μM (104 in HEK293T 10 μM), MTX and PEM 0.1 μM, CG 10 μM. The method, then:
Western Blots: KYSE70, HEK293T cells were plated and 24 hours later treated with compounds (see figure legends for details). Either at 24 or 48 hours later, cells were scrapped in RIPA buffer (0.2% deoxycholate, 0.1% SDS, 1% NP40, 150 mM NaCl, 50 mM Tris pH 7.4, 2 mM EDTA) supplemented with protease and phosphatase inhibitors, cleared at 14000×g for 15 minutes at 4° C., and supernatants were quantified by BCA assay (Pierce, 23225). Protein samples (20 μg) were prepared with 1×LDS buffer with 100 mM DTT, ran on NuPAGE 4-12% Bis-tris gels, and transferred onto a […] nitrocellulose membrane (Thermo, 88018). All blots were blocked in 5% milk in TBST for 30 minutes. After incubation of the primary antibody overnight at 4° C. and washed three times with 1×TBST, blots were incubated with LI-COR secondary antibodies for 1-2 hours, washed in 1×TBST thrice, and then imaged via a LI-COR Odyssey instrument (Li-COR, Lincoln, Nebr.).

Data set [3] has as its system NRF2 protein. Described as above. It is filed as cell-based. Particulars: H1299, 10 μM PYR or 1 μM 115 with 0.5 μM MLN, 24 hours.
Data set [4] concerns KYSE70 cells. As to the kind of experiment: Proliferation IC50 (percent confluence, IncuCyte) in KYSE70 cells. It is filed as cell-based. To be noted: Homo sapiens, KYSE-70; KYSE70, 96-hour time point, one or two experiments; read-out: proliferation IC50. The protocol:
(§1) IncuCyte and IC50 calculations: […] […] Readings were taken every 2 hours for at least 24 hours. […] Readings were also taken every 2 hours for 96 hours in and IncuCyte S3. YFP total intensity (correlating to NRF2 activity) was normalized to NLS-mCherry (cell number) total intensity to give a ratio (YFP/mCherry). Ratios at one time point at least 24 hours post compounds were added were used. These numbers were then plotted in Graphpad Prism to calculate IC50s. […] From three biological replicates, percent confluence was used for proliferation assays to calculate IC50s, calculations performed using Graphpad Prism.

Data set [5] deals with NRF2 activity in H1299-NQO1-YFP cells. The data set can be described thus: NRF2 activity reporter IC50 in H1299-NQO1-YFP cells vs NRF2 pathway activators (IncuCyte, YFP/mCherry). The class given is cell-based. The method, then: Readings were taken every 2 hours for at least 24 hours. […] Readings were also taken every 2 hours for 96 hours in and IncuCyte S3.
YFP total intensity (correlating to NRF2 activity) was normalized to NLS-mCherry (cell number) total intensity to give a ratio (YFP/mCherry). Ratios at one time point at least 24 hours post compounds were added were used. These numbers were then plotted in Graphpad Prism to calculate IC50s. […] From three biological replicates, percent confluence was used for proliferation assays to calculate IC50s, calculations performed using Graphpad Prism.

For another data set, the system named is AXIN2 and CK1γ1 mRNA. The data set can be described thus: qRT-PCR of AXIN2 and CK1γ1 mRNA (not NRF2 target genes) in KYSE70 cells. To be noted: KYSE70, 48 hours; 1 μM 115, 0.1 μM MTX, 0.1 μM PEM. The class given is cell-based. An excerpt:
Single experiment shown. AXIN2 and CK1γ1 were done in same experiment, but separated for discussion. Error bars are SD and * represents p-value <0.05.
qRT-PCR: Total RNA was extracted using PureLink RNA kit following the manufacturers protocol. Primers for qPCR were designed using the National Center for Biotechnology Information's (NCBI) Primer-BLAST platform. For primer sequences, see Table 2. RNA was quantified using a Nanodrop One (Thermo, Waltham, Mass.), and the reverse transcription reaction was performed using 2 μg of RNA with the iSCRIPT Clear kit with DNAse (Biorad, 170-8891). For the qRT-PCR, PowerUP SYBR Green (Thermo, A25741) was used, and data were analyzed on an AB QuantStudio 6 Flex Real Time PCR machine (Applied Biosystems, Foster City, Calif.). ΔCT values were normalized to housekeeping gene RPL13a and then normalized to DMSO for final ΔΔCT value.

Data set [6] concerns KYSE70 cells. The data set can be described thus: Metabolomics analysis of KYSE70 cells. The class given is cell-based. To be noted: KYSE70, 48 hours; 10 μM PYR, 1 μM 115, 0.1 μM MTX. The protocol:
After 48 hours, 1 ml of media was aliquoted into a clean Eppendorf and kept on ice, and the rest of the media was removed from these dishes. The cells were then washed in water twice and then scrapped in ice cold methanol.

A further data set concerns the target T1, human DHFR (hDHFR) (Homo sapiens, UniProt P00374).
T1 construct: purchased
T1 sequence (P00374 1-187): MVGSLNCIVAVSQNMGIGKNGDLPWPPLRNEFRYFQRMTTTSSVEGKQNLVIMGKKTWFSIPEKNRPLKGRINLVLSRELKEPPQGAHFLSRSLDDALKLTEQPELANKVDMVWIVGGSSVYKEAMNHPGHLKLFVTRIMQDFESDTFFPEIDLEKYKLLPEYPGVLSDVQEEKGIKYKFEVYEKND
As to the kind of experiment: Human DHFR enzymatic assay. It is filed as biochemical. Particulars: in vitro enzymatic assay, hDHFR 3E-3 Units; read-out: hDHFR3E-3 Units IC50 μM + SEM.

In a further data set the test system is H1299 cells. As to the kind of experiment: Proliferation IC50 (percent confluence, IncuCyte) in H1299 cells. The class given is cell-based. To be noted: Homo sapiens, NCI-H1299; H1299, 96-hour time point, initial experiment; read-out: proliferation IC50. The protocol: as §1

Read-outs that look alike come from different tables or passages of the source.

On to `CCc1nc(N)nc(N)c1-c1cccc(C(F)(F)F)c1` [WCDD115, 6-ethyl-5-(3-(trifluoromethyl)phenyl)pyrimidine-2,4-diamine], for which the concentration at 7 h is 76.4 ng/mL in data set [1] (iv, 2 mg/kg) and roughly 450 ng/mL in data set [1] (po, 10 mg/kg). For the same molecule, the “plasma level at 24 hours post dosing” value in [1] (oral 10 mg/kg or IV 2 mg/kg, 24 hours post dosing) is reported as “unquantifiable”. Further, the NRF2 protein abundance entry with NRF2 protein [2] is listed as “decrease NRF2 protein abundance”. The “NRF2 protein levels with MLN induced stabilization” value with NRF2 protein [3] is reported as “Neither PYR nor 115 can decrease NRF2 protein levels”. Further, the IC50 in the data set on KYSE70 cells [4] came out at 31.9 nM; in data set [5] (Table 1, activator CDDO 0.1 μM, H1299-NQO1-YFP cells, read-out: CDDO 0.1 μM IC50 μM ± SEM) it was 0.052 ± 0.0001 µM; in data set [5] (Table 1, activator SULF 2 μM, H1299-NQO1-YFP cells, read-out: SULF 2 μM IC50 μM ± SEM), 0.057 ± 0.003 µM; in data set [5] (Table 1 and text, average over activators CDDO, PRL295, SULF, H1299-NQO1-YFP cells, read-out: Avg IC50) it was 0.05 µM; in data set [5] (Table 6 NRF2 inhibitors, read-out: Avg IC50) it was 0.057 µM; in data set [5] (read-out: PRL295 5 μM IC50 AM ± SEM, Table 1, activator PRL295 5 μM, H1299-NQO1-YFP cells) it was 0.06 ± 0.001 µM. The IC50 in data set [5] (unit inferred, read-out: IC50) is 0.05 µM; on human DHFR (hDHFR) it was 0.144 ± 0.0224 µM; in the data set with H1299 cells, 145 nM. The “potency in NRF2 suppression compared to PYR” value in data set [5] (relative to PYR) came out at 10 fold. Also, the “AXIN2 and CK1γ1 mRNA” value with AXIN2 and CK1γ1 mRNA is “some minimal effect on AXIN2”. The “reduction potential in the form of glutathione ratios” value in the data set on KYSE70 cells [6] was “decreased”.
